Data: patent publication US20100324067A1, “TETRACYCLIC DIPYRANO-COUMARIN COMPOUNDS WITH ANTI-HIV AND ANTI-MYCOBACTERIUM TUBERCULOSIS ACTIVITIES” (priority 2007, published 2010)
≈ marks a conversion by molar mass, not a printed value. Like-named read-outs stand apart in the source and are kept apart here.

Legend:
[1] = test system: Mycobacterium tuberculosis H37Rv (ATCC 27294); test: Microplate Alamar Blue Assay (MABA) in BACTEC 12B medium (TAACF screen); type: cell-based; settings: for IC50: read-out: IC50
[2] = read-out: anti-TB active compound (MIC90 less than 10 μg/mL), classification

Structure (SMILES)	melting point	IC50 ([1]; MABA, H37Rv)	MIC90 ([1]; MABA, H37Rv, read-out: MIC90)	also measured
CCCc1cc(=O)oc2c3c(c4c(c12)OC(C)(C)C=C4)OC(=O)CC3	132 to 135 °C			
CCCc1cc(=S)oc2c3c(c4c(c12)OC(C)(C)C=C4)OC(C)CC3=O (stereo not shown)	139 to 141 °C			
CCCCC1C=Cc2c3c(c4oc(=O)c(F)c(CCC)c4c2O1)C(=O)CC(C)O3 (stereo not shown)	119 to 121 °C			
CCCCC1C=Cc2c3c(c4oc(=O)cc(CCC)c4c2O1)C(=O)CC(C)O3 (stereo not shown)	138 to 139 °C			
CCCc1c(Cl)c(=O)oc2c3c(c4c(c12)OC(CCC)C=C4)OC(C)CC3=O (stereo not shown)	140 to 142 °C			
CC1CC(=O)c2c(c3c(c4c(CCl)cc(=O)oc24)OC(C)(C)C=C3)O1 (stereo not shown)	132 to 134 °C			
CCCc1cc(=O)oc2c3c(c4c(c12)OC(C)(C)C=C4)OC(CN)CC3=O (stereo not shown)	> 220 °C (dec.)			
CCCc1cc(=O)oc2c3c(c4c(c12)OC(C)(C)C=C4)OC(CNS(=O)(=O)c1ccc(F)cc1)CC3=O (stereo not shown)	129 to 131 °C			
CCCc1cc(=O)oc2c3c(c4c(c12)OC(C)(C)C=C4)OC(CNS(=O)(=O)c1ccc(OC)cc1)CC3=O (stereo not shown)	108 to 109 °C			
CCCc1cc(=O)oc2c3c(c4c(c12)OC(C)(C)C=C4)OC(CN1CCCC1)CC3=O (stereo not shown)	148 to 149 °C			
CCCc1cc(=O)oc2c3c(c4c(c12)OC(C)(C)C=C4)OC(CN1CCCCC1)CC3=O (stereo not shown)	154 to 155 °C			
CCCc1cc(=O)oc2c(-c3cccn3C(C)C)c(O)c3c(c12)OC(C)(C)C=C3	161 to 162 °C			
CCCc1cc(=O)oc2c(-c3cccn3Cc3ccco3)c(O)c3c(c12)OC(C)(C)C=C3	157 to 159 °C			
C/C=C/C1C=Cc2c3c(c4oc(=O)cc(CCC(F)(F)F)c4c2O1)C(=O)CC(C)O3 (stereo not shown)	147 to 149 °C			
CCc1cc(=O)oc2c3c(c4c(c12)OCC(C)=C4)OC(C)CC3=O (stereo not shown)	121 to 123 °C			
CCCc1cc(=O)oc2c3c(c4c(c12)OCC(C)=C4)OC(C)CC3=O (stereo not shown)	127 to 128 °C			
NCC[C@H](O)C(=O)N[C@@H]1C[C@H](N)[C@@H](O[C@H]2O[C@H](CN)[C@@H](O)[C@H](O)[C@H]2O)[C@H](O)[C@H]1O[C@H]1O[C@H](CO)[C@@H](O)[C@H](N)[C@H]1O [Amikacin, reference compound]				MIC50 ([1]; control compound): 0.09 µg/mL (≈ 0.154 µM); MIC90 ([1]; control compound, read-out: Avg MIC90): 0.12 µg/mL (≈ 0.205 µM)
Cc1cc(=O)oc2c3c(c4c(c12)OC(C)(C)C=C4)OC(C)CC3=O (stereo not shown) [Example 1, 4,6,6,10-tetramethyl-2H,6H,12H-benzo[1,2-b:3,4-b′:5,6-b″]-tripyranyl-2,12-dione]	213 to 215 °C	39.2 µg/mL (≈ 120 µM)	59.5 µg/mL (≈ 182 µM)	
Cc1c(C)c2c3c(c4c(c2oc1=O)C(=O)CC(C)O4)C=CC(C)(C)O3 (stereo not shown) [Example 2, 3,4,6,6,10-pentamethyl-2H,6H,12H-benzo[1,2-b:3,4-b′:5,6-b″]-tripyranyl-2,12-dione]	142 to 144 °C	20.3 µg/mL (≈ 59.7 µM)	35.2 µg/mL (≈ 103 µM)	
Cc1c(Cl)c(=O)oc2c3c(c4c(c12)OC(C)(C)C=C4)OC(C)CC3=O (stereo not shown) [Example 3]		33.4 µg/mL (≈ 92.5 µM)	> 100 µg/mL	
Cc1c(Cc2ccccc2)c(=O)oc2c3c(c4c(c12)OC(C)(C)C=C4)OC(C)CC3=O (stereo not shown) [Example 4]		7.52 µg/mL (≈ 18 µM)	> 100 µg/mL	
CCCc1cc(=O)oc2c1c(O)cc1occc(=O)c12 [Example 5a-13, 5-hydroxyl-4-n-propyl-benzo[2,3-f]-pyranyl-2,10-dione]		46.7 µg/mL (≈ 172 µM)	53.4 µg/mL (≈ 196 µM)	
CCCc1cc(=O)oc2c3c(cc(O)c12)OC(CCC)CC3=O (stereo not shown) [Example 5a-14, benzo[1,2-b:3,4-b′]-dipyranyl-5-hydroxyl-4,8-di-n-propyl-2,10-dione]		60.2 µg/mL (≈ 190 µM)	85.8 µg/mL (≈ 271 µM)	

Structure (SMILES)	melting point	IC50 ([1]; MABA, H37Rv)	MIC90 ([1]; MABA, H37Rv, read-out: MIC90)	also measured
CCCCCC1CC(=O)c2c(cc(O)c3c(CCC)cc(=O)oc23)O1 (stereo not shown) [Example 5a-15]		66 µg/mL (≈ 192 µM)	> 100 µg/mL	
CCCc1cc(=O)oc2c3c(cc(O)c12)OC(c1ccccc1)CC3=O (stereo not shown) [Example 5a-16, benzo[1,2-b:3,4-b′]-dipyranyl-5-hydroxyl-8-phenyl-2,10-dione]		22.5 µg/mL (≈ 64.2 µM)	25.1 µg/mL (≈ 71.7 µM)	
CCCc1cc(=O)oc2c3c(cc(O)c12)O[C@@H]1CCCC[C@@H]1C3=O [Example 5a-19, benzo[1,2-b:3,4-b′]-dipyranyl-5-hydroxyl-8,9-cis-cyclohexyl-2,10-dione]		83.1 µg/mL (≈ 253 µM)	> 100 µg/mL	
CCCc1c(Cl)c(=O)oc2c3c(cc(O)c12)OC(C)CC3=O (stereo not shown) [Example 5a-20, benzo[1,2-b:3,4-b′]-dipyranyl-5-hydroxyl-8-methyl-3-chloro-4-n-propyl-2,10-dione]		26.9 µg/mL (≈ 83.5 µM)	42 µg/mL (≈ 130 µM)	
CC1CC(=O)c2c(cc(O)c3c4c(c(=O)oc23)CCCC4)O1 (stereo not shown) [Example 5a-27, benzo[1,2-b:3,4-b′]-dipyranyl-5-hydroxyl-8-methyl-3,4-cyclohexyl-2,0-dione]		94.3 µg/mL (≈ 314 µM)	> 100 µg/mL	
CCCc1c(F)c(=O)oc2c3c(cc(O)c12)OC(C)CC3=O (stereo not shown) [Example 5a-31, benzo[1,2-b:3,4-b′]-dipyranyl-5-hydroxyl-8-methyl-3-fluoro-4-n-propyl-2,10-dione]		17 µg/mL (≈ 55.5 µM)	23.5 µg/mL (≈ 76.6 µM)	
CC1CC(=O)c2c(cc(O)c3c(CCC(F)(F)F)cc(=O)oc23)O1 (stereo not shown) [Example 5a-71, benzo[1,2-b:3,4-b′]-dipyranyl-5-hydroxyl-8-methyl-4-((3,3′,3″-trifluoro)-n-propyl)-2,10-dione]		15.4 µg/mL (≈ 45.1 µM)	29.9 µg/mL (≈ 87.4 µM)	
CCCc1cc(=O)oc2c3c(cc(OS(=O)(=O)c4ccc(C)cc4)c12)OC(C)CC3=O (stereo not shown) [Example 5a-101, 5-(p-tolyl)sulfonyloxy-8-methyl-4-n-propyl-2H-benzo[2,3-f]dipyranyl-2,10-dione]		4.2 µg/mL (≈ 9.49 µM)	6.66 µg/mL (≈ 15.1 µM)	MIC90 [1, 2]: < 10 µg/mL
CCCc1cc(=S)oc2c3c(cc(OS(=O)(=O)c4ccc(C)cc4)c12)OC(C)CC3=O (stereo not shown) [Example 5a-102, 5-(p-tolyl)sulfonyloxy-8-methyl-4-n-propyl-2-thio-2H-benzo[2,3-f]dipyranyl-2,10-dione]		5.48 µg/mL (≈ 12 µM)	6.24 µg/mL (≈ 13.6 µM)	MIC90 [1, 2]: < 10 µg/mL
Cc1cc(=O)oc2cc3c(c(O)c12)C(=O)CC(C)O3 (stereo not shown) [Example 5b-1, benzo[1,2-b:3,4-b′]-dipyranyl-5-hydroxyl-4,8-dimethyl-2,6-dione]		43.1 µg/mL (≈ 165 µM)	> 100 µg/mL	
Cc1c(Cl)c(=O)oc2cc3c(c(O)c12)C(=O)CC(C)O3 (stereo not shown) [Example 5b-3, benzo[1,2-b:3,4-b′]-dipyranyl-5-hydroxyl-4,8-dimethyl-3-chloro-2,6-dione]		90.5 µg/mL (≈ 307 µM)	> 100 µg/mL	
CCCc1cc(=O)oc2cc3c(c(O)c12)C(=O)CC(C)O3 (stereo not shown) [Example 5b-11, benzo[1,2-b:3,4-b′]-dipyranyl-5-hydroxyl-4-n-propyl-8-methyl-2,6-dione]		95.3 µg/mL (≈ 330 µM)	> 100 µg/mL	
CCCc1cc(=O)oc2cc3c(c(O)c12)C(=O)CC(CCC)O3 (stereo not shown) [Example 5b-14, benzo[1,2-b:3,4-b′]-dipyranyl-5-hydroxyl-4,8-di-n-propyl-2,6-dione]		6.59 µg/mL (≈ 20.8 µM)	> 100 µg/mL	
CCCc1cc(=O)oc2cc3c(c(O)c12)C(=O)CC(c1ccccc1)O3 (stereo not shown) [Example 5b-16, benzo[1,2-b:3,4-b′]-dipyranyl-5-hydroxyl-8-phenyl-2,6-dione]		4.31 µg/mL (≈ 12.3 µM)	5.41 µg/mL (≈ 15.4 µM)	MIC90 [1, 2]: < 10 µg/mL
CC1CC(=O)c2c(cc3oc(=O)cc(-c4ccccc4)c3c2O)O1 (stereo not shown) [Example 5b-21, benzo[1,2-b:5,4-b′]-dipyranyl-5-hydroxyl-8-methyl-4-phenyl-2,6-dione]		14.9 µg/mL (≈ 46.1 µM)	21.3 µg/mL (≈ 66.1 µM)	
CC1CC(=O)c2c(c3c(c4c(CN5CCNCC5)cc(=O)oc24)OC(C)(C)C=C3)O1 (stereo not shown) [Example 6, 6,6,10-trimethyl-4-piperazidinylmethylene-10,11-dihydro-6H-benzo[2,3-f:2′,3′-h]-tripyranyl-2,12-dione]	156 to 158 °C	52.4 µg/mL (≈ 128 µM)	> 100 µg/mL	
O=c1oc2cc(O)cc(O)c2c2c1CCC2 [Example 6-26, 3,4-cyclopentyl-5,7-dihydroxy-coumarin]		9.97 µg/mL (≈ 45.7 µM)	24.4 µg/mL (≈ 112 µM)	
CCCCc1cc(=O)oc2cc(O)cc(O)c12 [Example 6-36, 4-n-butyl-5,7-dihydroxy-coumarin]		11.3 µg/mL (≈ 48.4 µM)	14.4 µg/mL (≈ 61.6 µM)	
O=c1cc(CCC(F)(F)F)c2c(O)cc(O)cc2o1 [Example 6-71, 4-(3,3′,3″-trifluoro)-n-propyl-5,7-dihydroxy-coumarin]		2.53 µg/mL (≈ 9.21 µM)	4.06 µg/mL (≈ 14.8 µM)	MIC90 [1, 2]: < 10 µg/mL
CC1CC(=O)c2c(c3c(c4c(-c5ccccc5)cc(=O)oc24)OC(C)(C)C=C3)O1 (stereo not shown) [Example 21]		16.6 µg/mL (≈ 42.8 µM)	> 100 µg/mL	
CC1CC(=O)c2c(c3c(c4c(-c5ccc(N)cc5)cc(=O)oc24)OC(C)(C)C=C3)O1 (stereo not shown) [Example 23, 6,6,10-trimethyl-4-p-aminophenyl-2H,6H,12H-benzo[1,2-b:3,4-b′:5,6-b″]-tripyranyl-2,12-dione]	149 to 151 °C	24.2 µg/mL (≈ 60 µM)	27.6 µg/mL (≈ 68.4 µM)	
CCCCc1cc(=O)oc2c3c(c4c(c12)OC(C)(C)C=C4)OC(C)CC3=O (stereo not shown) [Example 36]		24.2 µg/mL (≈ 65.8 µM)	36.6 µg/mL (≈ 99.3 µM)	
